Experimental data from US7825151B2, “Hexahydro-cyclooctyl pyrazole cannabinoid modulators” (priority 2005, dated 2010).
pEC50: −log10 of the molar value.

Key:
[1] = system: DSS induced colitis; assay: Dextran sulfate sodium (DSS) induced colitis model; assay type: in vivo, Female Balb/c mice; settings: for % Inh (Macro), % inhibition of colitis: macroscopic score
Text: In the distal colon, the DSS colitis model is characterized by a discontinuous pattern of mucosal epithelial damage, infiltration of inflammatory cells (including macrophages, neutrophils and lymphocytes) into the mucosa and submucosa, […] wet weight of the colon, shrinkage of the colon length and diarrhea (see, Blumberg R. S., Saubermann L. J. and Strober W., Animal models of mucosal inflammation and their relation to human inflammatory bowel disease, Current Opinion in Immunology, 1999, Vol. 11: 648-656; Egger B., Bajaj-Elliott M., MacDonald T. T., Inglin R., Eysselein, V. E. and Buchler M. W., Characterization of acute murine dextran sodium sulphate colitis: Cytokine profile and dose dependency, Digestion, 2000, Vol. 62: 240-248; Stevceva L., Pavli P., Husband A. J. and Doe, W. F., The inflammatory infiltrate in the acute stage of the dextran sulphate sodium induced colitis: B cell response differs depending on the percentage of DSS used to induce it, BMC Clinical Pathology, 2001, Vol 1: 3-13; and Diaz-Granados, Howe K., Lu J. and McKay D. M., Dextran sulfate sodium-induced colonic histopathology, but not altered epithelial ion transport, is reduced by inhibition of phosphodiesterase activity, Amer. J. Pathology, 2000, Vol. 156: 2169-2177).
Female Balb/c mice (Taconic Farms, Germantown, N.Y.) (10-13 weeks old) were provided with a solution of 5% DSS (45 kD molecular weight, ICN chemicals, Newport, Calif.) in tap water ad libitum over a 7-day period. The DSS solution was replenished daily and the amount consumed was measured.
The mice (10 per treatment group) were orally administered a test compound on the day of colitis induction and then daily thereafter.
Six days after the initial DSS administration, the last test compound dose was administered.
Seven days after the initial DSS administration, the animals were sacrificed. The colons were resected, examined for signs of inflammation, weighed after removing fecal contents and the length from the aboral end of the cecum to the anus was measured. The fecal contents were examined for signs of diarrhea. The distal colon between the 1st and the 4th centimeter was removed and placed in 10% neutral buffered formalin for histological analysis.
The macroscopic observations of colon inflammation (a measure of colon damage), colon length and stool consistency and appearance were assigned a score and used to evaluate colitis severity.
The three observation scores for each colon were combined, whereby a combined score of 0 represents a normal colon and a combined score of 11 represents a maximally affected colon. Statistical analyses were performed in Graphpad Prism 4.0 using ANOVA.
Histological analyses of tissues consisted of staining paraffin-embedded tissue sections with hematoxylin-eosin dye. The tissues were examined using light microscopy by an investigator who was blinded to the sample groups.
The microscopic observations of epithelial damage, cellular infiltration and damage or alteration of smooth muscle architecture (a measure of muscle damage) were assigned a score and used to evaluate colitis severity.
The scores for each colon were combined, whereby a combined score of 0 represents a normal colon and a combined score of 9 represents a maximally affected colon. […]
The Macroscopic Score and Microscopic Score results for each treatment group were each combined into a mean score and expressed as % inhibition of colitis (% Inh). […] ND represents Not Determined.

[2] = biological target: T1, human CB1 receptor (Homo sapiens, UniProt P21554); assay: Functional cell-based CRE β-gal assay, CB1 (adenylate cyclase activity); settings: single test concentration 1 μM (footnote 2)
T1 construct: expressed in transfected cells; host or cells: SK-N-MC cells, stably transfected with pcDNA3 CB-1 (human)
T1 sequence (P21554 whole entry): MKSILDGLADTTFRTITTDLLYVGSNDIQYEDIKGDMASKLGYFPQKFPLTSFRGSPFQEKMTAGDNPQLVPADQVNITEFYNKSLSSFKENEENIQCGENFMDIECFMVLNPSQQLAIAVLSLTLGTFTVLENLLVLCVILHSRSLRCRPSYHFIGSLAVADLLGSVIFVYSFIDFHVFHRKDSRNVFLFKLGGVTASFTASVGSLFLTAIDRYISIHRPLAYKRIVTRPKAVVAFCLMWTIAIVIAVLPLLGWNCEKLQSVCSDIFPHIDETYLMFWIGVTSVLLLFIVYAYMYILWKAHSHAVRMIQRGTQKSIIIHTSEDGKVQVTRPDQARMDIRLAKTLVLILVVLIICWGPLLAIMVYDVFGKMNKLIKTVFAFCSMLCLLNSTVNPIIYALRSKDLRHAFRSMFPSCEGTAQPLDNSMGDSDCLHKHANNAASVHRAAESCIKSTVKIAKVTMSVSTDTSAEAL
Text: (§1) The CB1 and CB2 receptors are G-protein coupled receptors (GPCR), which influence cell function via the Gi-protein. These receptors modulate the activity of intracellular adenylate cyclase, which in turn produces the intracellular signal messenger cyclic-AMP (cAMP).
(§2) At baseline, or during non-ligand bound conditions, these receptors are constitutively active and tonically suppress adenylate cyclase activity. The binding of an agonist causes further receptor activation and produces additional suppression of adenylate cyclase activity. The binding of an inverse agonist inhibits the constitutive activity of the receptors and results in an increase in adenylate cyclase activity.
(§3) By monitoring intracellular adenylate cyclase activity, the ability of compounds to act as agonists or inverse agonists can be determined.
(§4) Test compounds were evaluated in SK-N-MC cells which, using standard transfection procedures, were stably transfected with human cDNA for pcDNA3-CRE β-gal and pcDNA3 CB1 receptor (human) or pcDNA3 CB2 receptor (human). By expressing CRE β-gal, the cells produced β-galactosidase in response to CRE promoter activation by cAMP. Cells expressing CRE β-gal and either the human CB1 or CB2 receptor will produce less β-galactosidase when treated with a CB1/CB2 agonist and will produce more β-galactosidase when treated with a CB1/CB2 inverse agonist.
(§5) The cells were grown in 96-well plates under standard cell culture conditions at 37° C. in a 5% CO2 atmosphere. After 3 days, the media was removed and a test compound in media (wherein the media was supplemented with 2 mM L-glutamine, […] sodium pyruvate, 0.1% low fatty acid FBS (fetal bovine serum) and antibiotics) was added to the cell. The plates were incubated for 30 minutes at 37° C. and the plate cells were then treated with forskolin over a 4-6 hour period, then washed and lysed. The β-galactosidase activity was quantitated using commercially available kit reagents (Promega Corp. Madison, Wis.) and a Vmax Plate Reader (Molecular Devices, Inc).
(§6) The change in β-galactosidase activity was determined by setting a vehicle treated cell's activity value at 100% and expressing the β-galactosidase activity measured in a corresponding compound treated cell as a percent of the vehicle treated cell activity.
The EC50 value for functional activity for compounds tested was calculated by linear regression and was obtained from studies in which varying compound concentrations were used. Data provided for certain compounds is represented by percent change (%) in functional activity at a single test concentration: ^(1)10 μM and ^(2)1 μM.

[3] = biological target: T2, CB2 receptor (Homo sapiens, UniProt P34972); assay: Functional cell-based CRE β-gal assay, CB2 (adenylate cyclase activity)
T2 construct: expressed in transfected cells; host or cells: SK-N-MC cells, stably transfected with pcDNA3 CB-2 (human)
T2 sequence (P34972 whole entry): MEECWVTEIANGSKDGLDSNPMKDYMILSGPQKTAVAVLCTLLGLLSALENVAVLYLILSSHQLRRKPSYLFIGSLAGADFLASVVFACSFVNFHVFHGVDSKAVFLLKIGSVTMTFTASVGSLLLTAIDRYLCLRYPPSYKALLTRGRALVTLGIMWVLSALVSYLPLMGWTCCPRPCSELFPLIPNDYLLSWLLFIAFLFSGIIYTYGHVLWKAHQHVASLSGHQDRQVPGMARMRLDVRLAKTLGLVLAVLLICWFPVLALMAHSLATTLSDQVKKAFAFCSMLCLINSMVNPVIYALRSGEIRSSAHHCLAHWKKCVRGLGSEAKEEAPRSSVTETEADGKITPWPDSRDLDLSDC
Text: as §1, §2, §3, §4, §5
For cells expressing CRE β-gal and the CB2 receptor, CB2 agonists reduced β-galactosidase activity in a dose-dependent manner and CB2 inverse agonists increase β-galactosidase activity in a dose-dependent manner.
as §6
The EC50 value for functional activity for compounds tested was calculated by linear regression and was obtained from studies in which varying compound concentrations were used.
The value of 29% for Compound 5 represents change in functional activity and was obtained from a study in which one compound concentration was used.

Structure (SMILES): O=C(NCC12CC3CC(CC(C3)C1)C2)c1nn(C2CCCCC2)c2c1CCCCCC2 [Cpd 2, 1-cyclohexyl-4,5,6,7,8,9-hexahydro-1H-cyclooctapyrazole-3-carboxylic acid (adamantan-1-ylmethyl)-amide]
- % Inh (Macro), % inhibition of colitis ([1]; 1 mg/kg oral daily): −4.3 ± 12.9%
- % Inh (Macro), % inhibition of colitis ([1]; 5 mg/kg oral daily): 21.9 ± 15.2%
- % Inh (Micro), % inhibition of colitis ([1]; 5 mg/kg oral daily, microscopic score): 75.7 ± 8.9%
- % Inh (Macro), % inhibition of colitis ([1]; 10 mg/kg oral daily): 50.5 ± 9.0%
- % Inh (Macro), % inhibition of colitis ([1]; 20 mg/kg oral daily): 31.6 ± 8.5%
- CB1 receptor percent change in functional activity [2]: ^(2)−71%
- pEC50 [3]: 8.18
